Data reported in ChEMBL document CHEMBL3507680, “University of Dundee, Gates Library screen for HepG2 cell viability”.

assay: Human HepG2 cell viability assay in 384 well format; type: toxicity, cell-based; design: dose 125 nL, time 70.5 hour; cytotoxicity at 70.5 h: concentration not given beside the values; settings: HepG2 cells, read-out: Inhibition

Compound	cytotoxicity at 70.5 h [%]
Cc1ccc(C(=O)CCC(=O)N2CCC(c3nncn3C)CC2)cc1	-4.47
CCCSCC(=O)N1CCC2(CC1)CC(c1ccccc1)CN(C)C2 (stereo not drawn)	4.01
CCc1nc(CN2CCCN(C(=O)c3cc(C)on3)CC2)cs1	-1.87
CCOc1ccnc(N2CCN(C(=O)c3cccnc3O)CC2)n1	1.67
O=C(CCc1ccccn1)NC1CCN(c2cccc(Cl)c2)C1 (stereo not drawn)	39.6
CC(C)(C)OC(=O)NCC1CCN(C(=O)c2ccc(F)cc2F)C1 (stereo not drawn)	-4.74
CN(C)CCNC(=O)c1ccc(OC2CCN(S(C)(=O)=O)CC2)c(Cl)c1	-9.41
O=C1N(c2ccsc2)CCC12CCCN(c1ncc(F)cn1)C2 (stereo not drawn)	-9.83
COc1ccc(-c2cc(CN)nc3ccnn23)cc1	-12.4
Cc1nn(C)c2cnn(Cc3ccc(C(=O)N4CCN(C)CC4)o3)c12	28.4
CCO[C@H]1CO[C@@]2(CCCN(C(=O)c3ccc(OC)c(F)c3)C2)C1	2.45
CCOCCNCc1cc(O)c2cc(C)ccc2n1	-5.02
O=C(c1cc[nH]n1)N1CCOCC2(C1)CN(c1ccccc1)C(=O)CO2 (stereo not drawn)	-12.1
Cc1ccc(CNC(c2ccc(F)cc2)c2nccn2C)o1 (stereo not drawn)	-7.32
Cn1cc(Br)c(=O)c(NS(=O)(=O)c2ccc3c(c2)CCC3)c1	2.07
Cn1ccnc1CN1CCCC(Cc2ccccn2)C1 (stereo not drawn)	34.7
O=C1C(NCc2nnc3n2CCCC3)CCCN1c1cccc(F)c1 (stereo not drawn)	-3.38
Cc1nc(-c2cc(Cl)c3c(c2)CC(CN)O3)c[nH]1 (stereo not drawn)	0.0695
COCc1noc(-c2ccc(N(C)Cc3cn(C)nc3C)nc2)n1	-5.15
Cn1ccc(C(=O)NCc2cccc(CN3CCCC3)c2)cc1=O	-3.99
Cc1nn(CC(O)CN2CCC(C)CC2)c(=O)c(C#N)c1C (stereo not drawn)	-17

Compound	cytotoxicity at 70.5 h [%]
CCN(Cc1c(F)cccc1F)C(=O)c1ccncc1O	-7.76
NC(=O)C1CCN(C(C(=O)O)c2ccc(Cl)c(C(F)(F)F)c2)CC1 (stereo not drawn)	13.4
CC(=O)N1CCN(C(=O)CN2CCCC2c2c(C)nn(C)c2C)CC1 (stereo not drawn)	7.11
CCC(O)Cn1nc(-c2ccc(C(=O)O)cc2)cc1-c1ccc(F)cc1 (stereo not drawn)	-5.44
CCOCC(=O)Nc1nccn1Cc1ccccc1Cl	13.6
CCS(=O)(=O)N1CCCn2nnc(Cn3cccc3)c2C1	-5.99
O=C1CC(N(C(=O)c2ccc3[nH]c4c(c3c2)CCCC4)C2CC2)C(=O)N1 (stereo not drawn)	39.1
CCN1CC2(CCC1=O)CCN(Cc1nncn1C)CC2	-5.87
O=C(CC1CC1)N1CCN(Cc2ccncc2)c2ncccc2C1	-11.9
Cc1ccoc1C(=O)N1CC(C(=O)N2CCOCC2)C2(CCOCC2)C1 (stereo not drawn)	15.4
c1ccc2sc(N3CCCN(c4ncnc5c4CCNC5)CC3)nc2c1	-7.26
c1cnnc(N2CCCC(NCc3nnc(-c4ccco4)o3)C2)c1 (stereo not drawn)	3.16
CCc1cnc(C)nc1N(C)CCCc1cnn(C)c1	-12.1
CC(C)CN(CC(F)(F)F)S(=O)(=O)c1cc(C(N)=O)n(C)c1	1.58
O=C(N1CCCC1)N1C[C@@H]2CCNC[C@@H]21	-12
O=C(C1CCCC1)N1CC2(CCCN(C3COC3)C2)Cc2ccccc21 (stereo not drawn)	-15.4
COc1cccc(CCC2CCCCN2)c1 (stereo not drawn)	0.0655
Cc1cnc(N2Cc3nccn3CC(Cn3ncccc3=O)C2)nc1 (stereo not drawn)	-1
CCc1ncc2c(n1)CN(CC(=O)N1CCc3sccc3C1)CC2	-9
CN(C)c1cc(C2CCCN(Cc3cnn(C)c3)C2)ccn1 (stereo not drawn)	-0.665
CC(O)CN1CCC(CNCc2ccc(OC(F)(F)F)cc2)CC1 (stereo not drawn)	5.04

Compound	cytotoxicity at 70.5 h [%]
CCc1ccccc1OC1CN(C(=O)c2cccs2)C1	7.24
Cc1ccc(OCC(=O)NCC(C)C)nc1	-3.31
CN(CC1CCCCO1)C(=O)c1ccnc(OC2CCC2)c1 (stereo not drawn)	-5.26
O=C1OCCN1CCNCC1(O)CCCN(CCC2CCCCC2)C1=O (stereo not drawn)	-5.99
CCN1CCOC(CNCc2cnc(N(CC)CC)s2)C1 (stereo not drawn)	5.52
COCCN1C(=O)CO[C@H]2CN(Cc3ccccc3OC)C[C@H]21	-13.3
COc1ccc(C(=O)NCC(=O)N(Cc2ccsc2)C2CC2)cc1OC	30.2
CC(NC(=O)NCCCc1n[nH]c(N)c1C#N)c1cccc(Cl)c1 (stereo not drawn)	-4.21
Cc1cnn(CC2CCCN2CCCS(C)(=O)=O)c1 (stereo not drawn)	-2.25
Cc1nc(CNCC2CCCN2c2cccnn2)oc1C (stereo not drawn)	-4.96
COc1ccc(CNCc2nnc3n2CC(C(F)(F)F)CC3)cc1 (stereo not drawn)	26.4
CNC(=O)c1cccc(NC(=O)NC(C)CCc2cccn2C)c1C (stereo not drawn)	5.28
Cc1cnn(CC2CN(Cc3csc(C4CCCC4)n3)CCO2)c1 (stereo not drawn)	-0.185
CCOCC1CN(C(=O)c2cccn2C)Cc2cnn(CC3CC3)c21 (stereo not drawn)	0.525
Cn1cccc1C(=O)NCc1cn2c(n1)CN(CC1CCOCC1)CC2	-78.7
CCCC(=O)N1CCC(Nc2ncc(Br)cn2)CC1	0.868
Cc1cccc(CN2CCC3(CCCN(C(=O)c4ccoc4)C3)C2=O)n1 (stereo not drawn)	-3.14
COc1c(C)cnc(CN(C)C(=O)c2ccccn2)c1C	15.4
c1cc(CN2C[C@@H]3OCCN(CC4CCCO4)[C@@H]3C2)ccn1 (stereo partly drawn)	8.75
COCC(=O)NC(c1ccc(Cl)cc1)c1noc(C)n1 (stereo not drawn)	-2.49
O=C(NCc1ccccn1)NCC(O)c1ccccc1C(F)(F)F (stereo not drawn)	-5.77

Compound	cytotoxicity at 70.5 h [%]
Cc1cc(C)cc(NC(=O)N(CCC#N)CCCN(C)C)c1	-5.53
COc1ccc(CC(=O)N2CCN(c3nccn3C)CC2)cc1	-1.27
COC(=O)C1CCCN1C(=O)c1ccc(-n2nc(C)cc2C)cc1 (stereo not drawn)	-4.44
COC[C@@H]1CC[C@H]2[C@H](CCN2C(=O)c2ccncc2F)O1	-7.3
O=C(Cc1ccc2c(c1)OCCO2)NC1CCN(CC(F)F)CC1	-19.5
O=C1COC2(CCN(CC3CCOCC3)CC2)CN1Cc1ccccn1	-0.458
Cc1nc(CN2CCN(C(=O)c3sccc3C)CC2)cs1	-11.5
COCC1CN(C(=O)[C@H]2CCCO2)Cc2nnn(CC3CC3)c21 (stereo partly drawn)	-5.8
Cc1cnn(CC2CCCCN2CC(=O)N(C)Cc2ccc(C)o2)c1 (stereo not drawn)	-2.13
CC[C@H](C)[C@H](N)C(=O)Nc1nc(-c2cnc(N(C)C)nc2)cs1	-0.629
CS(=O)(=O)c1ccccc1C(=O)NCC1Cc2ccccc2O1 (stereo not drawn)	-4.69
Cc1nc2cc(C(=O)N3CCCC(n4cncn4)C3)ccc2n1C (stereo not drawn)	22.7
CCc1noc(CNc2c(F)cccc2-n2cccn2)n1	-8.2
CN(C)C(CNCc1nc(-c2ccsc2)no1)c1cccs1 (stereo not drawn)	-8.94
CCc1cc(NCCNC(=O)c2cccnc2)n2nc(C)c(C)c2n1	21
CN1CCN2CCN(Cc3ccccc3Cn3cccn3)CC2C1 (stereo not drawn)	-0.968
Cn1nc(CN2CCCC2)c2c1CN(CC1CC1)CC2	2.77
Cc1noc(C2CCCN(Cn3cc(Br)cn3)C2)n1 (stereo not drawn)	-8.2
Cc1noc(CNc2ccccc2C(=O)N2CCCC(O)C2)n1 (stereo not drawn)	5.5
CC(C)c1noc(C2CCN(S(=O)(=O)c3cccs3)CC2)n1	-0.463
